Activity calls are given as the source filed them. The rule behind the calls is not given here.

The target of data set [1] is Dual specificity mitogen-activated protein kinase kinase 5 (Homo sapiens) (UniProt Q13163). The conditions noted are these: Compound concentration 1000.0 nM.
Data set [2] addresses Beta-1 adrenergic receptor (Homo sapiens) (UniProt P08588). Kind of data set: BETA1/HU Eurofins-Panlabs selectivity data (BI). The conditions noted are these: Compound concentration 10.0 uM.
For data set [3], the target named is Adenosine receptor A1 (Homo sapiens) (UniProt P30542). Briefly: A1/HU Eurofins-Panlabs selectivity data (BI). The following applies: Compound concentration 10.0 uM.
For data set [4], the target named is Voltage-dependent L-type calcium channel subunit alpha-1C (DHP site) (Rattus norvegicus, UniProt P22002). Kind of data set: CA+/DHPSI/RA Eurofins-Panlabs selectivity data (BI). The conditions noted are these: compound concentration 10 uM, read-out: % Ctrl.
Data set [5] has as its target Protein kinase C alpha type (Mus musculus) (UniProt P20444). Briefly: PHORBOLE/M Eurofins-Panlabs selectivity data (BI). The following applies: Compound concentration 10.0 uM.
Data set [6] concerns the target Alpha-2A adrenergic receptor (Homo sapiens) (UniProt P08913). Kind of data set: ALPHA2A/H Eurofins-Panlabs selectivity data (BI). The conditions noted are these: Compound concentration 10.0 uM.
The target in data set [7] is T1, Fatty acid synthase (Homo sapiens, UniProt P49327). Kind of data set: Inhibition of [14C]acetate incorporation into human H1975 cells. It counts as cell-based, NCI-H1975.
For data set [8], the target named is Prostaglandin E2 receptor EP4 subtype (Homo sapiens) (UniProt P35408). Kind of data set: EP4/H Eurofins-Panlabs selectivity data (BI). The conditions noted are these: Compound concentration 10.0 uM.
The target of data set [9] is D(2) dopamine receptor (Homo sapiens) (UniProt P14416). Kind of data set: D2S/HU Eurofins-Panlabs selectivity data (BI). The conditions noted are these: Compound concentration 10.0 uM.
The target in data set [10] is 5-hydroxytryptamine receptor 7 (Homo sapiens) (UniProt P34969). The conditions noted are these: Compound concentration 10.0 uM.
Data set [11] addresses Nicotinic acetylcholine receptor alpha-1/beta-1 (Homo sapiens) (UniProt P02708+P11230). Briefly: NACH_BS_N/H Eurofins-Panlabs selectivity data (BI). The class given is protein-complex assay. The following applies: Compound concentration 10.0 uM.
Data set [12] has as its target ATP-sensitive inward rectifier potassium channel 1 isoform X1 (Mesocricetus auratus) (UniProt A0A1U8CU73). Kind of data set: K+/KATP/HA Eurofins-Panlabs selectivity data (BI). The following applies: Compound concentration 10.0 uM.
Data set [13] deals with Sigma non-opioid intracellular receptor 1 (Homo sapiens) (UniProt Q99720). Kind of data set: SIGMA1/HU Eurofins-Panlabs selectivity data (BI). The conditions noted are these: Compound concentration 10.0 uM.
The target in data set [14] is Mu-type opioid receptor (Homo sapiens) (UniProt P35372). Kind of data set: MU/HU Eurofins-Panlabs selectivity data (BI). The conditions noted are these: Compound concentration 10.0 uM.
In data set [15] the target is 5-hydroxytryptamine receptor 1B (Homo sapiens) (UniProt P28222). The following applies: Compound concentration 10.0 uM.
For data set [16], the target named is T2, Sigma intracellular receptor 2 (Homo sapiens, UniProt Q5BJF2). Kind of data set: SIGMA2/R Eurofins-Panlabs selectivity data (BI). The following applies: Rattus norvegicus; Compound concentration 10.0 uM.
Data set [17] has as its target Muscarinic acetylcholine receptor M3 (Homo sapiens) (UniProt P20309). Briefly: M3/HU Eurofins-Panlabs selectivity data (BI). The conditions noted are these: Compound concentration 10.0 uM.
Data set [18] deals with Muscarinic acetylcholine receptor M1 (Homo sapiens) (UniProt P11229). The conditions noted are these: Compound concentration 10.0 uM.
Data set [19] concerns the target Histamine H1 receptor (Homo sapiens) (UniProt P35367). Briefly: H1/H Eurofins-Panlabs selectivity data (BI). The conditions noted are these: Compound concentration 10.0 uM.
The target in data set [20] is 3',5'-cyclic-AMP phosphodiesterase 4A (Rattus norvegicus) (UniProt P54748). Briefly: ROLIPRAM/R Eurofins-Panlabs selectivity data (BI). The following applies: Compound concentration 10.0 uM.
Data set [21] has as its target Histamine H2 receptor (Homo sapiens) (UniProt P25021). The following applies: Compound concentration 10.0 uM.
Data set [22] has as its target T3, Alpha-1B adrenergic receptor (Homo sapiens) (UniProt P35368).
T3 sequence (whole entry): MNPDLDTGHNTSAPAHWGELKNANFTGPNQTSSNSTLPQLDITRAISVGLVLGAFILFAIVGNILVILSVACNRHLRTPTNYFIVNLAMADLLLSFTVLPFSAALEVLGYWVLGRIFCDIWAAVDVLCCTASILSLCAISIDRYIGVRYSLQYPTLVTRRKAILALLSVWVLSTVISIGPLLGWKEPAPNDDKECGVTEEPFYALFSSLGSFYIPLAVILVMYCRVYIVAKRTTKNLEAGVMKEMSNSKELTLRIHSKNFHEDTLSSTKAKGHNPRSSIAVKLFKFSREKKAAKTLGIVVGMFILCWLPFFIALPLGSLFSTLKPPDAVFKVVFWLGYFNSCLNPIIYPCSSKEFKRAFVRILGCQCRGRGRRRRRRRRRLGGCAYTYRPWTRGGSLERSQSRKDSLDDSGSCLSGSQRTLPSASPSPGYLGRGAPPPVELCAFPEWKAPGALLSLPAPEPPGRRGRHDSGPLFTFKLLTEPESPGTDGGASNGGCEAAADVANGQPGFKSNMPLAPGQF
Briefly: ALPHA1B/R Eurofins-Panlabs selectivity data (BI). The following applies: Rattus norvegicus; Compound concentration 10.0 uM.

The target of data set [23] is Glutamate receptor ionotropic, NMDA 2A (Rattus norvegicus) (UniProt Q00959). Kind of data set: NMDAPHSI/R Eurofins-Panlabs selectivity data (BI). The conditions noted are these: Compound concentration 10.0 uM.
Data set [24] has as its target hERG (KCNH2) potassium channel (Homo sapiens, UniProt Q12809). Briefly: K+/HERG Eurofins-Panlabs selectivity data (BI). The conditions noted are these: compound concentration 10 uM, read-out: % Ctrl.
For data set [25], the target named is D(1A) dopamine receptor (Homo sapiens) (UniProt P21728). Kind of data set: D1/HU Eurofins-Panlabs selectivity data (BI). The following applies: Compound concentration 10.0 uM.
For data set [26], the target named is Sodium-dependent noradrenaline transporter (Homo sapiens) (UniProt P23975). Briefly: NETRANS/H Eurofins-Panlabs selectivity data (BI). The conditions noted are these: Compound concentration 10.0 uM.
The target of data set [27] is Alpha-1D adrenergic receptor (Homo sapiens) (UniProt P25100). The following applies: Compound concentration 10.0 uM.
Data set [28] concerns the target Serine/threonine-protein kinase BRSK1 (Homo sapiens) (UniProt Q8TDC3). The conditions noted are these: Compound concentration 1000.0 nM.
The target in data set [29] is Activin receptor type-1B (Homo sapiens) (UniProt P36896). The conditions noted are these: Compound concentration 1000.0 nM.
In data set [30] the target is Ribosomal protein S6 kinase alpha-5 (Homo sapiens) (UniProt O75582). The conditions noted are these: Compound concentration 1000.0 nM.
Another data set has as its target Histamine H4 receptor (Homo sapiens, UniProt Q9H3N8). Briefly: GPCRScan assay: inhibition of H4. Further details: radioligand conc. used [nm] 1.0 – 5.0, parental cells HEK T.
Data set [31] concerns the target Glycogen synthase kinase-3 beta (Homo sapiens) (UniProt P49841). The following applies: Compound concentration 1000.0 nM.
The target of data set [32] is T1, Fatty acid synthase. Kind of data set: Human FAS enzyme assay.
Data set [33] concerns the target Tyrosine-protein kinase Fgr (Homo sapiens) (UniProt P09769). The following applies: Compound concentration 1000.0 nM.
Data set [34] deals with Uncharacterized serine/threonine-protein kinase SBK3 (Homo sapiens) (UniProt P0C264). The following applies: Compound concentration 1000.0 nM.
Data set [35] deals with Peripheral plasma membrane protein CASK (Homo sapiens) (UniProt O14936). The following applies: Compound concentration 1000.0 nM.
Data set [36] concerns the target T2, Sigma intracellular receptor 2. Kind of data set: GPCRScan assay: inhibition of Sigma 2. Further details: radioligand conc. used [nm] 5.0, parental cells HEKT.
The target in data set [37] is Serine/threonine-protein kinase MRCK beta (Homo sapiens) (UniProt Q9Y5S2). The following applies: Compound concentration 1000.0 nM.
The test system of data set [38] is Tyrosine-protein kinase ABL1 (Homo sapiens), P00519 [Y253F]. The conditions noted are these: Compound concentration 1000.0 nM.

T2 sequence (Q5BJF2 whole entry): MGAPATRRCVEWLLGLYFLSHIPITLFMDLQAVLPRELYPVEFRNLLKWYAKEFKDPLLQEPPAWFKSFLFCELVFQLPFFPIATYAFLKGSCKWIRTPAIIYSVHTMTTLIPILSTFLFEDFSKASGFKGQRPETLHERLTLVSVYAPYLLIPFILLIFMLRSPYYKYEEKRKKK
T1 sequence (P49327 whole entry): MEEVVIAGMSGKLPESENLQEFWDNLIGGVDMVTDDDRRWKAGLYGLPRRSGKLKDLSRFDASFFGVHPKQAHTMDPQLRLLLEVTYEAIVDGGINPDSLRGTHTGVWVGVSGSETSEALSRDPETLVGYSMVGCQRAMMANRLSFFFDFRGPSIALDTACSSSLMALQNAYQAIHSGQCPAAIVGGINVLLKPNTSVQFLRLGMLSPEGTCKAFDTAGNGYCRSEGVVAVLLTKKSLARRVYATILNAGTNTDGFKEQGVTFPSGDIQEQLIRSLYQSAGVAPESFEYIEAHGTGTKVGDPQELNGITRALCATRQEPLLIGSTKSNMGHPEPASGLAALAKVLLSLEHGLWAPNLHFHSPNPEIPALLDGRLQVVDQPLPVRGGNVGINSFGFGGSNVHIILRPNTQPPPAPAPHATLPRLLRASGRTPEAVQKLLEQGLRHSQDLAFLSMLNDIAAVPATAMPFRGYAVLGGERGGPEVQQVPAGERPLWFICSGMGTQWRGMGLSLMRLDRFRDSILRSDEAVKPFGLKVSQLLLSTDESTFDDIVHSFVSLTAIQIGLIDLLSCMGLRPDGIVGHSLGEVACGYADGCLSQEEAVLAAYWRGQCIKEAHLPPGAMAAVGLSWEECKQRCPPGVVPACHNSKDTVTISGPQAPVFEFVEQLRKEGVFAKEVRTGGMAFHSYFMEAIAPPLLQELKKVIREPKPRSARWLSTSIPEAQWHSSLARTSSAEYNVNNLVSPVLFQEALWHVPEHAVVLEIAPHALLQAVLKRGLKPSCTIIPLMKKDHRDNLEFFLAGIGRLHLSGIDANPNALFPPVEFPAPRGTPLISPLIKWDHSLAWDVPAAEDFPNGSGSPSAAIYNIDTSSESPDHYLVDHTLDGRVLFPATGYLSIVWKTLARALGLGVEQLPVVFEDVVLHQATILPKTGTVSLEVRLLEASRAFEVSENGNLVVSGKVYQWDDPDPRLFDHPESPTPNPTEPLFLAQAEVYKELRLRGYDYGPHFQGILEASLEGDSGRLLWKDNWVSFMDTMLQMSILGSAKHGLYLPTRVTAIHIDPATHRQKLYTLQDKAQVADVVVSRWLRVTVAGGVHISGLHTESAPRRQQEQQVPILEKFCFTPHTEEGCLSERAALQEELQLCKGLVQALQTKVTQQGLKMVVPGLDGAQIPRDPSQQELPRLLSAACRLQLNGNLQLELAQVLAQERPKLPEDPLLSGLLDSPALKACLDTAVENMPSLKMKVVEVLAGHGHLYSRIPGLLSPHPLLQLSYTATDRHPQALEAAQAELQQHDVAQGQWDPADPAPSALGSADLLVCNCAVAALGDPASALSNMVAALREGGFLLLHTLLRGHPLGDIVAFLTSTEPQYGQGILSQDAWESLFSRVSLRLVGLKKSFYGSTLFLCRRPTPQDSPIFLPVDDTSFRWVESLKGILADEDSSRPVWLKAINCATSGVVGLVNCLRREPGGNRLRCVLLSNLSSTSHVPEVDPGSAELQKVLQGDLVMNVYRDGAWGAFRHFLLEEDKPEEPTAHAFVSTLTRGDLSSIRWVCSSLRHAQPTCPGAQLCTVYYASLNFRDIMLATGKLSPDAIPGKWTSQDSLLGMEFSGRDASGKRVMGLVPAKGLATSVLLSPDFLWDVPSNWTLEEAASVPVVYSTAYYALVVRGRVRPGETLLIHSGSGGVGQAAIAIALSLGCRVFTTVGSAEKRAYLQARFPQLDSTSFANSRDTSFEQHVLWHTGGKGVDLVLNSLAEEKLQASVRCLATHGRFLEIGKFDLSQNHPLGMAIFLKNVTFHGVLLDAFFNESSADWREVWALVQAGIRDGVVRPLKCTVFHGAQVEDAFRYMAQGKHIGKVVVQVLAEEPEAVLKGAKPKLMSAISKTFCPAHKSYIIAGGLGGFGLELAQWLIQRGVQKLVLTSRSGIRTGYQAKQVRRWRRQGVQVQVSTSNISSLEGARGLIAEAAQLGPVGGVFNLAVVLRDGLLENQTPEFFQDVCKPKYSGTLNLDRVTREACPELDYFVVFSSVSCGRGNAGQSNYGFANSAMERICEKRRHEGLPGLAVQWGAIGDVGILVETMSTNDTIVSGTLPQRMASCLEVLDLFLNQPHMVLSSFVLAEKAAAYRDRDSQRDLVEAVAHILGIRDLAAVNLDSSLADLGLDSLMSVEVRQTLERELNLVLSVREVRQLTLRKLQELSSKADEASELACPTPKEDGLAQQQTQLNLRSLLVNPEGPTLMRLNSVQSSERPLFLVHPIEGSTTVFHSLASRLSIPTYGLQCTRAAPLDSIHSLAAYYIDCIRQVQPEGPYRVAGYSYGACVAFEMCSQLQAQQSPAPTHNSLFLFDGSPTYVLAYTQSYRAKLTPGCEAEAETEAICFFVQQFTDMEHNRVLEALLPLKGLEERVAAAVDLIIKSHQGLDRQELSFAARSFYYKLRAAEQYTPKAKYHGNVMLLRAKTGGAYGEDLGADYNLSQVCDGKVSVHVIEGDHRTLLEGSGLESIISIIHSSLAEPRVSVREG
Mu-type opioid receptor (Homo sapiens), sequence (P35372 whole entry): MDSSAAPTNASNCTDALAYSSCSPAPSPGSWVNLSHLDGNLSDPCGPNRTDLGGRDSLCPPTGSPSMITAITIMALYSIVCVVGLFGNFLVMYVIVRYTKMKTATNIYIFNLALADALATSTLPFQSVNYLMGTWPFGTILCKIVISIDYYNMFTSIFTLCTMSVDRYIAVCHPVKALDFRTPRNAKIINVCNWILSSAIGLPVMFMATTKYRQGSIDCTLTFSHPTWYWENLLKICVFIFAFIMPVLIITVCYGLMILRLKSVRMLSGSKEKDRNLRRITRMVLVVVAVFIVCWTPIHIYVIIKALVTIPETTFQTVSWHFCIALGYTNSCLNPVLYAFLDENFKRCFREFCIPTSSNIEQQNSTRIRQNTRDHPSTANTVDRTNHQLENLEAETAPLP
3',5'-cyclic-AMP phosphodiesterase 4A (Rattus norvegicus), sequence (P54748 whole entry): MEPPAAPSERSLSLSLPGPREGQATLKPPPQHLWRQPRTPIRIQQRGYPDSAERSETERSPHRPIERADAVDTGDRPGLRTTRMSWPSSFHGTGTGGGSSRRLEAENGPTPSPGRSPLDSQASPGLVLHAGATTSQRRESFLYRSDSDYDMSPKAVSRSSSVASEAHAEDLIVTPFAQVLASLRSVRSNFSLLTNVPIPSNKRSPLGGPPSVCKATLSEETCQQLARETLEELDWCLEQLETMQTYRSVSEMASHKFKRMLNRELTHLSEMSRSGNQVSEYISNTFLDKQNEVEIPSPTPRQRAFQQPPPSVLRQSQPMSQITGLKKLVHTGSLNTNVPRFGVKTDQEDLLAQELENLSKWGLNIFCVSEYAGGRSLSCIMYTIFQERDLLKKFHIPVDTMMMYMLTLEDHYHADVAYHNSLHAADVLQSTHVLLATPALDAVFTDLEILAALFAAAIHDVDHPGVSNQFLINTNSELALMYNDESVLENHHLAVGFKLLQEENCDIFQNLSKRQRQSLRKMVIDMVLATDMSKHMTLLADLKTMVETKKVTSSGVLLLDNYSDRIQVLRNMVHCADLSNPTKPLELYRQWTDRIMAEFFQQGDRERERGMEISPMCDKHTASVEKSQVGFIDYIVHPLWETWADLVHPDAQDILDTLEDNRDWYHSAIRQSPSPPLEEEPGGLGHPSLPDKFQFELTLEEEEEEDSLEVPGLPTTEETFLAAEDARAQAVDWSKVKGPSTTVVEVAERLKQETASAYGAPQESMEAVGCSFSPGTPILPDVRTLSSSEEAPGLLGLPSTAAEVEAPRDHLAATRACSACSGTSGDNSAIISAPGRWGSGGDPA
Adenosine receptor A1 (Homo sapiens), sequence (P30542 whole entry): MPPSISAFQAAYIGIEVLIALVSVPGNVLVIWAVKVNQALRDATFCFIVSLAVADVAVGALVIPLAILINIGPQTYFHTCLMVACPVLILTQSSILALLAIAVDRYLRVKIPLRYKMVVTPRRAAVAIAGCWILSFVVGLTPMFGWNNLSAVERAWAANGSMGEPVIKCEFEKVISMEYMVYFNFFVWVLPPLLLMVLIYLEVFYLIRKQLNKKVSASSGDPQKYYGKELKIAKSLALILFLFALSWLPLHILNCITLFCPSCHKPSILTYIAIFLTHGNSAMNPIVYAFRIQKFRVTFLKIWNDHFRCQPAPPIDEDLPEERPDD
ATP-sensitive inward rectifier potassium channel 1 isoform X1 (Mesocricetus auratus), sequence (A0A1U8CU73 as listed by the source): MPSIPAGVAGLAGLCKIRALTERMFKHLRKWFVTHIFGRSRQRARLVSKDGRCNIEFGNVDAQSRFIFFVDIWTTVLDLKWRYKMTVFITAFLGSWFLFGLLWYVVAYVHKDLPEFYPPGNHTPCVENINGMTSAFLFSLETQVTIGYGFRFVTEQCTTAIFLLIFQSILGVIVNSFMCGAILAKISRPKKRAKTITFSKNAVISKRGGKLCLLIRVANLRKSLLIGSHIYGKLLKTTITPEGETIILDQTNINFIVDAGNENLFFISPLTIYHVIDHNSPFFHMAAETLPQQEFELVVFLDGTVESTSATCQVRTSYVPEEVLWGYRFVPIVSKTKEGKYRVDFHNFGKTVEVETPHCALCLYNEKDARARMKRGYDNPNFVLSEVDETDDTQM
5-hydroxytryptamine receptor 1B (Homo sapiens), sequence (P28222 whole entry): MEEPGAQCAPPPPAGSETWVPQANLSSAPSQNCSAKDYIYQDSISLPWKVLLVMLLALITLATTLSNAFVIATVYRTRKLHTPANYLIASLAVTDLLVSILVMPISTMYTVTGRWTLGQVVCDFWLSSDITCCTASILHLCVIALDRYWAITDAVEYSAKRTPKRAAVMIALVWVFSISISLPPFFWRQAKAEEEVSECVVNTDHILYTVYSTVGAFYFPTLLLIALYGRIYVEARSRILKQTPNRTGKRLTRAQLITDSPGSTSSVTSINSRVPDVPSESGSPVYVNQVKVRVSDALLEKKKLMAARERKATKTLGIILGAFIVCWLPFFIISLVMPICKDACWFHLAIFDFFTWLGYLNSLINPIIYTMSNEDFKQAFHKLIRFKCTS

In the case of `CCC(=O)N[C@H]1CC[C@@H](C(=O)N(C)c2ccc(-c3nc4ccccc4o3)cc2)C1` [BI 99179], the residual activity is 16% in [1]; 96% in [2]; 107% in data set [3]; 94% in [5]; 98% in [6]; 91% in data set [8]. The residual activity is 95% in data set [9]; 91% in data set [11]; 88% in data set [12]; 102% in data set [13]; 100% in data set [14]; 87% in [16]. Besides, the residual activity is 106% in data set [17]; 87% in [19]; 83% in data set [20]; 96% in data set [22]; 101% in data set [23]; 93% in [25]. Also, the residual activity in [26] was 91%. In addition, the values for the activity at 10 µM in [4] and in data set [24] were 93% (not active) and 105% (not active), respectively. Also, the half-maximal inhibitory concentration (IC50) (usually the point on the concentration scale where inhibition reaches its midpoint) at Fatty acid synthase [7] was 180 nM (active). Besides, the inhibition (commonly the change of the read-out against control, counted positive when it falls) in [10] was -6.53%; in [15], 25.7%; in [18] it was 3.53%; in data set [21] it was -1.25%; in data set [27] it was 50%.
For the compound `CCC(=O)N[C@@H]1CC[C@H](C(=O)N(C)c2ccc(-c3nc4ccccc4o3)cc2)C1` [BI 99990], the residual activity in [28] was 100%; in [29], 100%; in data set [30], 75%; in [31], 96%; in data set [33], 100%; in [34], 88%. Also, the residual activity in data set [35] is 83%; in data set [37], 100%; in [38], 95%. Also, the Ki (in general, a dissociation constant, usually derived from enzyme kinetics or from competition with a known ligand) is 1630 nM on Histamine H4 receptor and 396 nM in data set [36]. At Fatty acid synthase [32], the concentration for half-maximal inhibition (IC50) was > 3000 nM (not active).

The values above are taken from ChEMBL document CHEMBL4507280 (2021).
